Test results published in patent publication US11345670B2, “Heterocyclic compounds for cancer imaging and treatment and methods for their use” (The University of British Columbia, priority 2015, dated 2022).

Tested on: androgen receptor (AR)
Test: PSA (6.1 kb)-luciferase reporter assay in LNCaP cells induced with R1881
Format: cell-based
Conditions: Homo sapiens; LNCaP cells transiently transfected with PSA (6.1 kb)-luciferase; 1 h pre-treatment with compound, then R1881 (1 nM) for 24 h; value with standard error
Protocol: LNCaP cells were transiently transfected with PSA (6.1 kb)-luciferase for 24 h prior to pre-treatment with compounds of the invention (e.g., compounds 1a, 9, 13) ranging in concentration from 62.5 ng/ml to 1.5 ug/ml for 1 hour before the addition of vehicle, or synthetic androgen, R1881 (1 nM) to induce luciferase production. After 24 h of incubation with R1881, the cells were harvested, and relative luciferase activities were determined. To determine the IC50, treatments were normalized to the predicted maximal activity induction (in the absence of test compounds, vehicle only).

Compound	IC50
CC(C)(c1ccc(OC[C@H](O)CCl)cc1)c1ccc(OC[C@H](O)Cn2nnc(CO)c2I)cc1 [Compound 1a, (S)-1-chloro-3-(4-(2-(4-((R)-2-hydroxy-3-(4-(hydroxymethyl)-5-iodo-1H-1,2,3-triazol-1-yl)propoxy)phenyl)propan-2-yl)phenoxy)propan-2-ol]	3.23 µM
CC(C)(c1ccc(OCC(O)CCl)cc1)c1ccc(OCC(O)Cn2ccnc2)cc1 (stereo not drawn) [Compound 9, 1-chloro-3-(4-(2-(4-(2-hydroxy-3-(1H-imidazol-1-yl)propoxy)phenyl)propan-2-yl)phenoxy)propan-2-ol]	8.45 µM
CC(C)(c1ccc(OCC(O)CCl)cc1)c1ccc(OCC(O)CN2CCOCC2)cc1 (stereo not drawn) [Compound 13, 1-chloro-3-(4-(2-(4-(2-hydroxy-3-morpholinopropoxy)phenyl)propan-2-yl)phenoxy)propan-2-ol]	12.8 µM
